1 substance from patent US11865158B2, “Process and composition matter of nanoparticle formulation for systemic treatment of sepsis” (PURDUE RESEARCH FOUNDATION, priority 2019, dated 2024) can be followed below.

One experiment deals with LPS-induced sepsis. In words: Therapeutic efficacy in LPS-induced endotoxemia (sepsis) model. The conditions noted are these: free PMB at the respective LD50 (20 mg/kg for IP and 5 mg/kg for IV). The format is in vivo, C57BL/6 mice. As to the method: The therapeutic efficacy of D-TZP was tested in a mouse model of sepsis. C57BL/6 male mice were given IP injection of 20 mg/kg LPS, which causes systemic inflammation similar to initial clinical features of sepsis. TZP or D-TZP was administered in three regimens:
Therapeutic efficacy in LPS-induced endotoxemia model. 6-8 week-old C57BL/6 mice (male and female) were challenged with an intraperitoneal injection of 20 mg/kg LPS solution (5% dextrose) via 20G catheter (Exel International Disposable Safelet I.V.), which causes systemic inflammation similar to initial clinical features of sepsis^17,19. […] A vehicle control (5% dextrose) or an equivalent dose of free PMB were given in the same manner for comparison. […] Buprenorphine (0.05 mg/kg) was injected subcutaneously shortly after the treatment and every 2-12 h as the signs of discomfort were observed. The body temperature was measured with a Pocket Infrared Thermometer (Braintree Scientific, Inc., Braintree, MA) at each observation, and the body weight was recorded at each observation. When an animal was found dead at the time of observation, the time of death was estimated to be in the halfway of the last two observation times. When animals were lethargic and cold at the time of observation, the animals were euthanized by CO2 asphyxiation. The mouse survival was monitored for 2 weeks.

Experiment [1] has as its system Pseudomonas aeruginosa NR-50573. In words: Minimum inhibitory concentration, broth microdilution. The format is cell-based. The text has this: (§1) Bacterial cell lines and reagents. Escherichia coli ATCC 2452 (NDM-1, isolated in Pakistan) was New Delhi metallo-beta-lactamase (NDM-1) positive, blaNDM positive by PCR, and carbepenem-resistant (Imipenem and Ertapenem). Escherichia coli ATCC 2469 (1001728, isolated from human urine) was New Delhi metallo-beta-lactamase (NDM-1) positive, blaKPC negative and blaNDM positive by PCR, and Carbepenem-resistant (Imipenem and Ertapenem). Klebsiella pneumoniae (NR-41920, isolated in 2008 from human blood culture in Boston, Massachusetts, USA) was Carbapenem-resistant strain, blaKPC-3 positive by PCR, and resistant to amikacin, ampicillin/sulbactam, cefazolin, cefepime, ceftazidime, ceftriaxone, cefuroxime, ciprofloxacin, gentamicin, meropenem, piperacillin/tazobactam, tobramicin and trimethoprim/sulfamethoxazole. Pseudomonas aeruginosa (NR-50573, isolated in early 1970s from the blood of a burn patient at Mercy Hospital in Pittsburgh, Pennsylvania, USA) was resistant to rifampicin and susceptible to meropenem, ofloxacin, ceftazidime, amikacin, and tobramycin. 0.5 McFarland standard was purchased from ThermoFisher scientific (Waltham, MA, USA). Mueller-Hinton broth and tryptone soy agar plates were purchased from Becton, Dickinson and company (Franklin Lakes, New Jersey, USA).
(§2) Antimicrobial activities The minimum inhibitory concentrations (MICs) of the control antibiotics (gentamicin and imipenem), PMB, D-TZP and TZP against Escherichia coli, Klebsiella pneumoniae and Pseudomonas aeruginosa strains were determined by the broth microdilution method, according to guidelines outlined by the Clinical and Laboratory Standards Institute (CLSI)^18. The bacterial stains were grown aerobically overnight on tryptone soy agar plates at 37° C. Afterwards, a bacterial solution equivalent to 0.5 McFarland standard was prepared and diluted in cation-adjusted Mueller-Hinton broth (CAMHB) to achieve a bacterial concentration of ˜5×10^5 CFU/mL. The treatments were added in the first row of the 96-well plates and serially diluted with media containing bacteria. Plates were incubated aerobically at 37° C. for 16-18 hours.
Background: In broth dilution the organism is exposed to a series of concentrations in liquid medium.

Experiment [2] deals with Escherichia coli ATCC 2452. The description is as above. The format is cell-based.
From the text: as §1, §2

Experiment [3] relates to Klebsiella pneumoniae NR-41920. Described as above. The format is cell-based.
From the text: as §1, §2

For experiment [4], the system named is Escherichia coli ATCC 2469. The experiment is described as above. The format is cell-based.
From the text: as §1, §2

Turning to polymyxin B [PMB], in the experiment with LPS-induced sepsis, the “protection of challenged animals” value is reported as “did not protect the challenged animals”. Also, the “Minimum inhibitory concentration (MIC)” value in experiment [1] is 0.5 µg/mL; in experiment [2], 0.5 µg/mL; in experiment [3], 0.5 µg/mL; in experiment [4], 0.125 µg/mL.
